In US20260207602A1, “EGFR INHIBITORS” (Blueprint Medicines Corporation, priority 2022, published 2026):

Assays:
EGFR L858R = biological target: T1, EGFR L858R (Homo sapiens, UniProt P00533, L858R); experiment: Biochemical EGFR inhibition assay (Caliper mobility shift), EGFR L858R; details: biochemical Caliper mobility shift assay, EGFR L858R enzyme; read-out: Enz EGFR L858R IC50
T1 construct: purchased SignalChem E10-122BG
Summary of the method: (§1)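 Recombinant mutant enzyme, 2.5 µM fluorescent peptide, ATP at 1.0 mM or Km, 1.0% DMSO, 25 °C. Stopped with EDTA once 10–20% of peptide was phosphorylated; apparent IC50 derived from electrophoretic product/substrate separation.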

EGFR (d746-750) = biological target: T2, EGFR (d746-750) (Homo sapiens, UniProt P00533, DEL746-750); experiment: Biochemical EGFR inhibition assay (Caliper mobility shift), EGFR (d746-750); details: biochemical Caliper mobility shift assay, EGFR Exon 19-del enzyme; read-out: Enz EGFR Exon 19-del IC50
T2 construct: purchased SignalChem E10-122JG
Summary of the method: as §1

[1] = biological target: intracellular phosphorylation of EGFR (Tyr1068) in PC-9 cells (Homo sapiens, UniProt P00533, DEL746-750); experiment: PC-9 pEGFR AlphaLISA assay; format: cell-based; details: 4 hours incubation, read-out: Phos EGFR PC9 IC50
Summary of the method: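 PC-9 cells (EGFR del746-750) in phenol-free DMEM/10% FBS, adhered overnight, then exposed to 10-point 4-fold compound dilutions for 4 h at 37 °C. Lysates assayed for pEGFR Tyr1068 by AlphaLISA SureFire Ultra; IC50 from percent pEGFR inhibition vs log concentration.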

T2 sequence (P00533 with tags, fused parts or gaps DEL746-750 limits assumed): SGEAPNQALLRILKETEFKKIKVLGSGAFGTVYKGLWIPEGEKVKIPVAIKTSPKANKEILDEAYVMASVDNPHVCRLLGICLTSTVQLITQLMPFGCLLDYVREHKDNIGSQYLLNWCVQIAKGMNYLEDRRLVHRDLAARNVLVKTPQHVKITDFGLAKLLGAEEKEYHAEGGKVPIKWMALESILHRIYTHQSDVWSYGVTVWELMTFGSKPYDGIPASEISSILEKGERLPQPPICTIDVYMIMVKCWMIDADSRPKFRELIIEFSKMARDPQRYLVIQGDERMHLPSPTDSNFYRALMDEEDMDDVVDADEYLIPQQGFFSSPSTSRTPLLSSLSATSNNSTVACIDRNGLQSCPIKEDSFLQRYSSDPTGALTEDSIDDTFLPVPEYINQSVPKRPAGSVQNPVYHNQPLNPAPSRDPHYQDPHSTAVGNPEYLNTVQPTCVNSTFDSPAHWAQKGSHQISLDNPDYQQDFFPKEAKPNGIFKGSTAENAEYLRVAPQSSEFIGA
T1 sequence (P00533 25-1210 L858R): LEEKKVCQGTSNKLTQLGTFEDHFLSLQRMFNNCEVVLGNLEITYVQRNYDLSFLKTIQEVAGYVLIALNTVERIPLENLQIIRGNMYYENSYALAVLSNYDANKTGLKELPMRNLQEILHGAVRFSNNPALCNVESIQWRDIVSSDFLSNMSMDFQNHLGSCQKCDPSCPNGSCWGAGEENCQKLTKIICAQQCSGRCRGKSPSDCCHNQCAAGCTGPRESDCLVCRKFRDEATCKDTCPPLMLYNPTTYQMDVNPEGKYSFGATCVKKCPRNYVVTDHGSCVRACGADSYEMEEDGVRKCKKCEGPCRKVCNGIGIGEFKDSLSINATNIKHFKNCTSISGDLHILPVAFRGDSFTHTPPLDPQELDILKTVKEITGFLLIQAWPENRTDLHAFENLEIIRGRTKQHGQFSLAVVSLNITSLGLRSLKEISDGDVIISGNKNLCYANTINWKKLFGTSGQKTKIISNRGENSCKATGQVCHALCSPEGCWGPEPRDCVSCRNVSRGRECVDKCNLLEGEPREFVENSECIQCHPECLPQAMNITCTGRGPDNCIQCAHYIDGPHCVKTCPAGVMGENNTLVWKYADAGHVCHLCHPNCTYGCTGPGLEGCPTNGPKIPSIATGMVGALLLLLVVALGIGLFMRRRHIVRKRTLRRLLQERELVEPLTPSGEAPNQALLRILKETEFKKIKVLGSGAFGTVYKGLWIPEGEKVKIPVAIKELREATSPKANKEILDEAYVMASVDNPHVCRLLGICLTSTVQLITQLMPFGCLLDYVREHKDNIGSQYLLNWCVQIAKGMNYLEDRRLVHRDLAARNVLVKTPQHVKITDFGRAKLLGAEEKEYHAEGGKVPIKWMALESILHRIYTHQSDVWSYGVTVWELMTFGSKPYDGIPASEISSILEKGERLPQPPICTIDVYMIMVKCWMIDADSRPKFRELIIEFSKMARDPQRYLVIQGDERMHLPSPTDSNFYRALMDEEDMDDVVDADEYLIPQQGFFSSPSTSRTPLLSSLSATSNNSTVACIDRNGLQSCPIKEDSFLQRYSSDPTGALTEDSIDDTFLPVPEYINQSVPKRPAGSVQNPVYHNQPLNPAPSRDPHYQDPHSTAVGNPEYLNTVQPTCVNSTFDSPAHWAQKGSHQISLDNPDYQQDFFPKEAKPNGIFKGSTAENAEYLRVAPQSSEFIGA
Chain of intracellular phosphorylation of EGFR (Tyr1068) in PC-9 cells (P00533 with tags, fused parts or gaps DEL746-750): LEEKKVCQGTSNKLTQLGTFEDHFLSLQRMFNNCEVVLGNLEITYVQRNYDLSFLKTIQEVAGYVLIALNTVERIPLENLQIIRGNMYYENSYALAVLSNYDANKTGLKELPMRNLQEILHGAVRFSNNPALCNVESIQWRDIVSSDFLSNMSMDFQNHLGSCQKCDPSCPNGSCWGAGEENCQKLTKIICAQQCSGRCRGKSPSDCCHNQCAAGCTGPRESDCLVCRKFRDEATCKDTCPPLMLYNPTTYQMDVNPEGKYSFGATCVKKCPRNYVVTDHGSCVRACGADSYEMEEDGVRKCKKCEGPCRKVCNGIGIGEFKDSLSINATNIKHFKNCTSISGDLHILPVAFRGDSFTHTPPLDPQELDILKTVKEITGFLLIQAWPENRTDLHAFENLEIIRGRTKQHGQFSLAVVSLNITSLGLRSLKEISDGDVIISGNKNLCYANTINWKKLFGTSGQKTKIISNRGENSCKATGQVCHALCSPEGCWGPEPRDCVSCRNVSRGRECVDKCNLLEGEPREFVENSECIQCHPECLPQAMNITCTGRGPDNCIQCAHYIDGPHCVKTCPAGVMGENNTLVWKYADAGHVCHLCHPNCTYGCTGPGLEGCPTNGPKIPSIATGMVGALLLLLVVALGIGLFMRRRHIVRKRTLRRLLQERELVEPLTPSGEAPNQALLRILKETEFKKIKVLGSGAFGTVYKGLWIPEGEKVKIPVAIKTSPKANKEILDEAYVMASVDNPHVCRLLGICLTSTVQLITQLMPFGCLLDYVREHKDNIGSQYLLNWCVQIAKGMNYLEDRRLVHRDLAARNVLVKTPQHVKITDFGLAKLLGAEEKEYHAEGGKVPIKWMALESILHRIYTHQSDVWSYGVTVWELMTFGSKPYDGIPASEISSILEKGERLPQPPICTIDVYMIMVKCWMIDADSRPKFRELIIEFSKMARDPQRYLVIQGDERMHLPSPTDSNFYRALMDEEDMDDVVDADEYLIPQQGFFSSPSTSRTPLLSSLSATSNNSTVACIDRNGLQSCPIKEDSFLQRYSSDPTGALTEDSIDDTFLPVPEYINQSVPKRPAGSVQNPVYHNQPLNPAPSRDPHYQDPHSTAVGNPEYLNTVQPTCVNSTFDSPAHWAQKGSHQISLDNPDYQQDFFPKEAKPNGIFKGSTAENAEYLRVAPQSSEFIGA

SMILES | IC50 (EGFR L858R) | IC50 (EGFR (d746-750)) | IC50 [1]
CN1CCC(Oc2cc(-c3cnn(C(F)F)c3)cc3ncnc(Nc4ccc5ncsc5c4)c23)CC1 [Example 189, N-(7-(1-(difluoromethyl)-1H-pyrazol-4-yl)-5-((1-methylpiperidin-4-yl)oxy)quinazolin-4-yl)benzo[d]thiazol-6-amine] | 10.1 to 50 nM | ≤ 10 nM | 10.1 to 50 nM
Cn1cc(-c2cc(O[C@H]3CNC[C@H](F)C3)c3c(Nc4ccc5ncsc5c4)ncnc3c2)cn1 (racemic) [Example 331, trans-N-(5-(((3R,5R)-5-fluoropiperidin-3-yl)oxy)-7-(1-methyl-1H-pyrazol-4-yl)quinazolin-4-yl)benzo[d]thiazol-6-amine and N-(5-(((3S,5S)-5-fluoropiperidin-3-yl)oxy)-7-(1-methyl-1H-pyrazol-4-yl)quinazolin-4-yl)benzo[d]thiazol-6-amine] | ≤ 10 nM | ≤ 10 nM | ≤ 10 nM
CCN1CC[C@H](Oc2cc(-c3cnn(C)c3)cc3ncnc(Nc4ccc5ncsc5c4)c23)C1=O (single isomer, unassigned) [Example 60, (S)-3-((4-(benzo[d]thiazol-6-ylamino)-7-(1-methyl-1H-pyrazol-4-yl)quinazolin-5-yl)oxy)-1-ethylpyrrolidin-2-one or (R)-3-((4-(benzo[d]thiazol-6-ylamino)-7-(1-methyl-1H-pyrazol-4-yl)quinazolin-5-yl)oxy)-1-ethylpyrrolidin-2-one] | ≤ 10 nM | ≤ 10 nM | 10.1 to 50 nM
CC(Oc1cc(-c2cnn(C)c2)cc2ncnc(Nc3ccc4ncsc4c3)c12)C(F)F (racemic) [Example 51, (rac)-N-(5-((1,1-difluoropropan-2-yl)oxy)-7-(1-methyl-1H-pyrazol-4-yl)quinazolin-4-yl)benzo[d]thiazol-6-amine] | ≤ 10 nM | ≤ 10 nM | ≤ 10 nM
Cn1cc(-c2cc(OCC#N)c3c(Nc4ccc5ncsc5c4)ncnc3c2)cn1 [Example 407, 2-((4-(benzo[d]thiazol-6-ylamino)-7-(1-methyl-1H-pyrazol-4-yl)quinazolin-5-yl)oxy)acetonitrile] | ≤ 10 nM | ≤ 10 nM | 10.1 to 50 nM
CO[C@@H]1CNCC[C@H]1Oc1cc(-c2cnn(C)c2)cc2ncnc(Nc3ccc4ncsc4c3)c12 (single isomer, unassigned) [Example A42] | ≤ 10 nM | ≤ 10 nM | ≤ 10 nM
C[C@H](CO)Oc1cc(N2CCN(C)CC2)cc2ncnc(Nc3ccc4ncsc4c3)c12 (single isomer, unassigned) [Example 293] | ≤ 10 nM | ≤ 10 nM | 10.1 to 50 nM
C[C@@H](Oc1c(F)c(-c2cnn(C)c2)cc2ncnc(Nc3ccc4ncsc4c3F)c12)C1COC1 (single isomer, unassigned) [Example A27] | ≤ 10 nM | ≤ 10 nM | 10.1 to 50 nM
CCN1CCN(C(=O)Nc2cc3c(Nc4ccc5ncsc5c4)ncnc3cc2-c2ccn(C)n2)[C@H](C)C1 [Example 397, (R)-N-(4-(benzo[d]thiazol-6-ylamino)-7-(1-methyl-1H-pyrazol-3-yl)quinazolin-6-yl)-4-ethyl-2-methylpiperazine-1-carboxamide] | ≤ 10 nM | ≤ 10 nM | ≤ 10 nM
C[C@H](CN(C)C)Oc1cc(N2CC[C@@H](C(C)(C)O)C2)cc2ncnc(Nc3ccc4ncsc4c3)c12 (single isomer, unassigned) [Example 155] | ≤ 10 nM | ≤ 10 nM | ≤ 10 nM
CN1CCC[C@H](Oc2cc(-c3cn(C)nn3)cc3ncnc(Nc4ccc5ncsc5c4)c23)C1 [Example 247, (S)-N-(7-(1-methyl-1H-1,2,3-triazol-4-yl)-5-((1-methylpiperidin-3-yl)oxy)quinazolin-4-yl)benzo[d]thiazol-6-amine] | ≤ 10 nM | ≤ 10 nM | 10.1 to 50 nM
CN1C[C@H](F)[C@H](Oc2cc(-c3cnn(C)c3)cc3ncnc(Nc4ccc5ncsc5c4)c23)C1 (single isomer, unassigned) [Example 380] | ≤ 10 nM | ≤ 10 nM | 10.1 to 50 nM
Cn1cc(-c2cc(O[C@H]3CC[C@@H](O)CC3)c3c(Nc4ccc5ncsc5c4)ncnc3c2)cn1 [Example 11, (1s,4s)-4-((4-(benzo[d]thiazol-6-ylamino)-7-(1-methyl-1H-pyrazol-4-yl)quinazolin-5-yl)oxy)cyclohexan-1-ol] | ≤ 10 nM | ≤ 10 nM | ≤ 10 nM
COc1nn(C)cc1-c1cc(O[C@H]2CCN(C)C2=O)c2c(Nc3ccc4ncsc4c3)ncnc2c1 (single isomer, unassigned) [Example 75] | ≤ 10 nM | ≤ 10 nM | ≤ 10 nM

Further lines, results first:

IC50 (EGFR L858R) | IC50 (EGFR (d746-750)) | IC50 [1] | SMILES
≤ 10 nM | ≤ 10 nM | 10.1 to 50 nM | COc1cc2ncnc(Nc3ccc4ncsc4c3)c2cc1NC(=O)N1C[C@H]2CCN(C)[C@H]2C1 [Example 251, (3aR,6aR)-N-(4-(benzo[d]thiazol-6-ylamino)-7-methoxyquinazolin-6-yl)-1-methylhexahydropyrrolo[3,4-b]pyrrole-5(1H)-carboxamide]
10.1 to 50 nM | ≤ 10 nM | 10.1 to 50 nM | C[C@@H]1CN(C)CCN1c1cc(O[C@H](C)C2COC2)c2c(Nc3ccc4ncsc4c3F)ncnc2c1 (single isomer, unassigned) [Example 107, N-(7-((R)-2,4-dimethylpiperazin-1-yl)-5-((R)-1-(oxetan-3-yl)ethoxy)quinazolin-4-yl)-7-fluorobenzo[d]thiazol-6-amine or N-(7-((R)-2,4-dimethylpiperazin-1-yl)-5-((S)-1-(oxetan-3-yl)ethoxy)quinazolin-4-yl)-7-fluorobenzo[d]thiazol-6-amine]
10.1 to 50 nM | ≤ 10 nM | ≤ 10 nM | CC(CN(C)C)Oc1cc(N2CC(C)OC(C)C2)cc2ncnc(Nc3ccc4ncsc4c3)c12 (single isomer, unassigned) [Example 150]
10.1 to 50 nM | ≤ 10 nM | 10.1 to 50 nM | C[C@@H](Oc1cc(N2CCN(C)[C@@H](C)C2)cc2ncnc(Nc3ccc4ncsc4c3F)c12)C1COC1 (single isomer, unassigned) [Example 99]
≤ 10 nM | ≤ 10 nM | 10.1 to 50 nM | Cn1cc(-c2cc(OCC(F)(F)F)c3c(Nc4ccc5ncsc5c4)ncnc3c2)cn1 [Example 50, N-(7-(1-methyl-1H-pyrazol-4-yl)-5-(2,2,2-trifluoroethoxy)quinazolin-4-yl)benzo[d]thiazol-6-amine]
≤ 10 nM | ≤ 10 nM | ≤ 10 nM | COCCOc1cc(O[C@H](C)C2COC2)c2c(Nc3ccc4ncsc4c3F)ncnc2c1 (single isomer, unassigned) [Example 84]
10.1 to 50 nM | ≤ 10 nM | 10.1 to 50 nM | CC[C@H](Oc1cc(-c2cnn(C)c2)cc2ncnc(Nc3ccc4ncsc4c3F)c12)C1CN(C)C1 (single isomer, unassigned) [Example 389]
≤ 10 nM | ≤ 10 nM | ≤ 10 nM | COc1nn(C)cc1-c1cc(O[C@H]2CCNC[C@H]2F)c2c(Nc3ccc4ncsc4c3)ncnc2c1 [Example 365, N-(5-(((3R,4S)-3-fluoropiperidin-4-yl)oxy)-7-(3-methoxy-1-methyl-1H-pyrazol-4-yl)quinazolin-4-yl)benzo[d]thiazol-6-amine]
